# Experimental data published in US6689790B2, “Substituted triazolopyridine compounds” (Hoffmann-La Roche Inc., priority 2001, dated 2004).
# Where two headings read alike, the source gives them in different places.
# Key:
# [1] = molecular target: T1, human adenosine A2A receptor (Homo sapiens, UniProt P29274); experiment: [3H]-SCH-58261 binding assay, human adenosine A2A receptor (CHO cell membranes, SPA); conditions: for Ki: [3H]-SCH-58261 displacement, read-out: hA2a Ki; for Select. A1/A2a: ratio hA1 Ki / hA2a Ki
# T1 construct: expressed in transfected cells; host or cells: CHO cells, semliki forest virus expression system; washed membranes
# T1 sequence (P29274 whole entry): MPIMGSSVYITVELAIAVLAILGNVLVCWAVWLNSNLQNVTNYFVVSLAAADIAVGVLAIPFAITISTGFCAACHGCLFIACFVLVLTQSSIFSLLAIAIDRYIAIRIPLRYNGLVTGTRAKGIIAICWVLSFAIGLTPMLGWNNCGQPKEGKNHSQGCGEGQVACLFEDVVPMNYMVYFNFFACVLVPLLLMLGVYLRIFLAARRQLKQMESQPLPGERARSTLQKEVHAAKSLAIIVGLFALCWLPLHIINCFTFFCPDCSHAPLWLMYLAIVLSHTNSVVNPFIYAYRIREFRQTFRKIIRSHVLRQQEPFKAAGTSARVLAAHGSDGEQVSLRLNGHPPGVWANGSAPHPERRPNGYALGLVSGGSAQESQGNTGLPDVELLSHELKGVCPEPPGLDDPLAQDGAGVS
# Experimental: Human Adenosine A2A Receptor
# The human adenosine A2A receptor was recombinantly expressed in chinese hamster ovary (CHO) cells using the semliki forest virus expression system. Cells were harvested, washed twice by centrifugation, homogenized and again washed by centrifugation. The final washed membrane pellet was suspended in a Tris (50 mM) buffer containing 120 mM NaCl, 5 mM KCl, 2 mM CaCl2 and 10 mM MgCl2 (pH 7.4) (buffer A). […] Compounds were tested at 10 concentrations from 10 μM-0.3 nM. All assays were conducted in duplicate and repeated at least two times. Assay plates were incubated for 1 hour at room temperature before centrifugation and then bound ligand determined using a Packard Topcount scintillation counter. IC50 values were calculated using a non-linear curve fitting program and Ki values calculated using the Cheng-Prussoff equation.
# [2] = molecular target: T2, hA1 (Homo sapiens, UniProt P30542); experiment: hA1 receptor affinity (Ki); assay type: binding; conditions: list of examples 10-108
# T2 sequence (P30542 1-326): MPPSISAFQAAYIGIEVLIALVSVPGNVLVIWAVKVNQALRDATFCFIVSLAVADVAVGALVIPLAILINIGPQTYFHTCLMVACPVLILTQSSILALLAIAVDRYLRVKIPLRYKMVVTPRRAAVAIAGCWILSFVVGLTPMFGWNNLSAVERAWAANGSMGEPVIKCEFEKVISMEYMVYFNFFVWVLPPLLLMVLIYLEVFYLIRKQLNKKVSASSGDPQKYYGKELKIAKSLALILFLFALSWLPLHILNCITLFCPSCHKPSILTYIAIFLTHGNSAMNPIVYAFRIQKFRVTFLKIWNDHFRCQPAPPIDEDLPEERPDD
# [3] = Ki by Cheng-Prussoff, table of preferred compounds
SMILES,"Ki [1, 3]",Select. A1/A2a [1],Ki [2],Ki ([1]; list of examples 10-108)
"C[C@@H]1C[C@@H](C)CN(C(=O)c2cc(N)c3nc(-c4ccc(Br)o4)nn3c2)C1 (stereo in doubt) [Example 14, [8-Amino-2-(5-bromo-furan-2-yl)-[1,2,4]triazolo[1,5-a]pyridin-6-yl]-(3,5-dimethyl-piperidin-1-yl)-methanone]",37.2 nM,32,1190 nM,
"COCC1CCCN1C(=O)c1cc(N)c2nc(-c3ccc(Br)o3)nn2c1 (stereo in doubt) [Example 17, [8-Amino-2-(5-bromo-furan-2-yl)-[1,2,4]triazolo[1,5-a]pyridin-6-yl]-((S)-2-methoxymethyl-pyrrolidin-1-yl)-methanone]",,,1230 nM,
"COCC1CCCN1C(=O)c1cc(N)c2nc(-c3ccco3)nn2c1 (stereo in doubt) [Example 41, (8-Amino-2-furan-2-yl-[1,2,4]triazolo[1,5-a]pyridin-6-yl)-(2-R-methoxymethyl-pyrrolidin-1-yl)-methanone]",77.6 nM,56.2,4360 nM,
"CCN(CC)C(=O)c1cc(N)c2nc(-c3ccc(Br)o3)nn2c1 [Example 10, 8-Amino-2-(5-bromo-furan-2-yl)-[1,2,4]triazolo[1,5-a]pyridine-6-carboxylic acid diethylamide]",,,2260 nM,
"Nc1cc(C(=O)N2CCCC2)cn2nc(-c3ccc(Br)o3)nc12 [Example 11, [8-Amino-2-(5-bromo-furan-2-yl)-[1,2,4]triazolo[1,5-a]pyridin-6-yl]-pyrrolidin-1-yl-methanone]",,,1270 nM,
"CC1CCCN1C(=O)c1cc(N)c2nc(-c3ccc(Br)o3)nn2c1 (stereo not drawn) [Example 12, [8-Amino-2-(5-bromo-furan-2-yl)-[1,2,4]triazolo[1,5-a]pyridin-6-yl]-(2-methyl-pyrrolidin-1-yl)-methanone]",,,1120 nM,
"CCN(CC)C(=O)C1CCCN(C(=O)c2cc(N)c3nc(-c4ccc(Br)o4)nn3c2)C1 (stereo not drawn) [Example 13, 1-[8-Amino-2-(5-bromo-furan-2-yl)-[1,2,4]triazolo[1,5-a]pyridine-6-carbonyl]-piperidine-3-carboxylic acid diethylamide]",,,2690 nM,
"CC1CCCCN1C(=O)c1cc(N)c2nc(-c3ccc(Br)o3)nn2c1 (stereo not drawn) [Example 15, [8-Amino-2-(5-bromo-furan-2-yl)-[1,2,4]triazolo[1,5-a]pyridin-6-yl]-(2-methyl-piperidin-1-yl)-methanone]",,,1940 nM,
"COC[C@@H]1CCCN1C(=O)c1cc(N)c2nc(-c3ccc(Br)o3)nn2c1 [Example 16, [8-Amino-2-(5-bromo-furan-2-yl)-[1,2,4]triazolo[1,5-a]pyridin-6-yl]-(2-methoxymethyl-pyrrolidin-1-yl)-methanone]",,,1050 nM,
"CN(C)C(=O)[C@@H]1CCCN1C(=O)c1cc(N)c2nc(-c3ccc(Br)o3)nn2c1 [Example 18, 1-[8-Amino-2-(5-bromo-furan-2-yl)-[1,2,4]triazolo[1,5-a]pyridine-6-carbonyl]-pyrrolidine-2-carboxylic acid (S)-dimethylamide]",67 nM,16.5,1110 nM,
"CN(C)C(=O)CN(C)C(=O)c1cc(N)c2nc(-c3ccc(Br)o3)nn2c1 [Example 19, 8-Amino-2-(5-bromo-furan-2-yl)-[1,2,4]triazolo[1,5-a]pyridine-6-carboxylic acid dimethylcarbamoyl-methyl-methyl-amide]",,,3000 nM,
"CC1CCCN(C(=O)c2cc(N)c3nc(-c4ccc(Br)o4)nn3c2)C1 (stereo not drawn) [Example 20, [8-Amino-2-(5-bromo-furan-2-yl)-[1,2,4]triazolo[1,5-a]pyridin-6-yl]-(3-methyl-piperidin-1-yl)-methanone]",,,803 nM,
"CCCN(C)C(=O)c1cc(N)c2nc(-c3ccc(Br)o3)nn2c1 [Example 21, 8-Amino-2-(5-bromo-furan-2-yl)-[1,2,4]triazolo[1,5-a]pyridine-6-carboxylic acid methyl-propyl-amide]",,,1150 nM,
"CCN(CCc1ccccn1)C(=O)c1cc(N)c2nc(-c3ccc(Br)o3)nn2c1 [Example 22, 8-Amino-2-(5-bromo-furan-2-yl)-[1,2,4]triazolo[1,5-a]pyridine-6-carboxylic acid ethyl-(2-pyridin-2-yl-ethyl)-amide]",,,1420 nM,
"Nc1cc(C(=O)N2CCSCC2)cn2nc(-c3ccc(Br)o3)nc12 [Example 23, [8-Amino-2-(5-bromo-furan-2-yl)-[1,2,4]triazolo[1,5-a]pyridin-6-yl]-thiomorpholin-4-yl-methanone]",,,937 nM,
"CN(CCC#N)C(=O)c1cc(N)c2nc(-c3ccc(Br)o3)nn2c1 [Example 24, 8-Amino-2-(5-bromo-furan-2-yl)-[1,2,4]triazolo[1,5-a]pyridine-6-carboxylic acid (2-cyano-ethyl)-methyl-amide]",,7.5,830 nM,111 nM

SMILES,"Ki [1, 3]",Select. A1/A2a [1],Ki [2],Ki ([1]; list of examples 10-108)
"CN(CCc1ccccc1)C(=O)c1cc(N)c2nc(-c3ccc(Br)o3)nn2c1 [Example 25, 8-Amino-2-(5-bromo-furan-2-yl)-[1,2,4]triazolo[1,5-a]pyridine-6-carboxylic acid methyl-phenethyl-amide]",,,590 nM,
"Nc1cc(C(=O)N2CCCC2)cn2nc(-c3ccccn3)nc12 [Example 26, (8-Amino-2-pyridin-2-yl-[1,2,4]triazolo[1,5-a]pyridin-6-yl)-pyrrolidin-1-yl-methanone]",,,3570 nM,
"Nc1cc(C(=O)N2CCCC2)cn2nc(-c3ccco3)nc12 [Example 34, (8-Amino-2-furan-2-yl-[1,2,4]triazolo[1,5-a]pyridin-6-yl)-pyrrolidin-1-yl-methanone]",,,4200 nM,
"Nc1cc(C(=O)N2CCCCC2)cn2nc(-c3ccco3)nc12 [Example 35, (8-Amino-2-furan-2-yl-[1,2,4]triazolo[1,5-a]pyridin-6-yl)-piperidin-1-yl-methanone]",,,3440 nM,
"CC1CCCN1C(=O)c1cc(N)c2nc(-c3ccco3)nn2c1 (stereo not drawn) [Example 37, (8-Amino-2-furan-2-yl-[1,2,4]triazolo[1,5-a]pyridin-6-yl)-(2-methyl-pyrrolidin-1-yl)-methanone]",34.9 nM,84.2,2940 nM,
"CC1CCCCN1C(=O)c1cc(N)c2nc(-c3ccco3)nn2c1 (stereo not drawn) [Example 39, (8-Amino-2-furan-2-yl-[1,2,4]triazolo[1,5-a]pyridin-6-yl)-(2-methyl-piperidin-1-yl)-methanone]",,16.1,2190 nM,136 nM
"COC[C@H]1CCCN1C(=O)c1cc(N)c2nc(-c3ccco3)nn2c1 [Example 42, (8-Amino-2-furan-2-yl-[1,2,4]triazolo[1,5-a]pyridin-6-yl)-(2-S-methoxymethyl-pyrrolidin-1-yl)-methanone]",69.4 nM,81.1,5630 nM,
"NC(=O)[C@H]1CCCN1C(=O)c1cc(N)c2nc(-c3ccco3)nn2c1 [Example 43, 1-(8-Amino-2-furan-2-yl-[1,2,4]triazolo[1,5-a]pyridine-6-carbonyl)-pyrrolidine-2-R-carboxylic acid amide]",,16.9,2330 nM,138 nM
"CC1CCCN(C(=O)c2cc(N)c3nc(-c4ccco4)nn3c2)C1 (stereo not drawn) [Example 46, (8-Amino-2-furan-2-yl-[1,2,4]triazolo[1,5-a]pyridin-6-yl)-(3-methyl-piperidin-1-yl)-methanone]",,20.4,2690 nM,131 nM
"Nc1cc(C(=O)N(Cc2ccccc2)Cc2ccccc2)cn2nc(-c3ccco3)nc12 [Example 48, 8-Amino-2-furan-2-yl-[1,2,4]triazolo[1,5-a]pyridine-6-carboxylic acid dibenzylamide]",,7.5,247 nM,32.7 nM
"Nc1cc(C(=O)N2CCCC2)cn2nc(-c3cccs3)nc12 [Example 51, (8-Amino-2-thiophen-2-yl-[1,2,4]triazolo[1,5-a]pyridin-6-yl)-pyrrolidin-1-yl-methanone]",,,725 nM,
"Cc1ccc(-c2nc3c(N)cc(C(=O)N4CCCC4)cn3n2)o1 [Example 83, [8-Amino-2-(5-methyl-furan-2-yl)-[1,2,4]triazolo[1,5-a]pyridin-6-yl]-pyrrolidin-1-yl-methanone]",,,1640 nM,
"Cc1ccc(-c2nc3c(N)cc(C(=O)N4CCCCC4)cn3n2)o1 [Example 84, [8-Amino-2-(5-methyl-furan-2-yl)-[1,2,4]triazolo[1,5-a]pyridin-6-yl]-piperidin-1-yl-methanone]",,,1270 nM,
"CC1CCCN(C(=O)c2cc(N)c3nc(-c4nccs4)nn3c2)C1 (stereo not drawn) [Example 107, (8-Amino-2-thiazol-2-yl-[1,2,4]triazolo[1,5-a]pyridin-6-yl)-(3-methyl-piperidin-1-yl)-methanone]",,,,632 nM
"CN(CCc1ccccc1)C(=O)c1cc(N)c2nc(-c3nccs3)nn2c1 [Example 108, 8-Amino-2-thiazol-2-yl-[1,2,4]triazolo[1,5-a]pyridine-6-carboxylic acid methyl-phenethyl-amide]",,,,988 nM
